Test results reported in patent US11129782B2, “Derivatives of PPD useful for coloring hair and skin” (National University of Singapore, priority 2017, dated 2021).

What was measured:
[1] = test system: lysine peptide (Ac-RFAAKAA-COOH); test: Direct Peptide Reactivity Assay, lysine peptide; conditions: for % of Lysine depletion, Avg / % of Lysine depletion, Rep 2 / % of Lysine depletion, Rep 3 / Reactivity Class: 1:50; for % of Lysine depletion, Rep 1: peptide 0.02 mM : test chemical 1 mM (1:50); for Reactivity Class: lysine
Description: The mass spectrometric analysis was performed by use of a AB SCIEX QTRAP 5500 tandem mass spectrometry (MS/MS) system (AB SCIEX, Framingham, Mass., USA) operating in triple quadrupole positive mode (ESI+) equipped with an AB Sciex Turbo Ion Spray interface. Acquisition and analysis of data were performed with Analyst software ver. 1.6.2 (Applied Biosystems).

[2] = Skin permeation in vertical Franz diffusion cells; type: in vitro ADME, porcine
In short: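 Dermatomed porcine ear skin (~1.0 mm, barrier checked by TEWL) in vertical Franz cells at 37 °C, 0.64 cm^2 area, PBS receptor, donor of 1% w/v solutions in argon-purged water (n=3). Receptor sampled over 8 h with mass balance, LCMS quantification; flux and permeability coefficients from steady-state Fick's law fits.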

Compound: Nc1ccc(N)cc1 [PPD, para-phenylenediamine, reference compound]
- % of Lysine depletion, Avg ([1]; 20 min): 14.6%
- % of Lysine depletion, Rep 2 ([1]; 20 min): 14.4%
- % of Lysine depletion, Rep 3 ([1]; 20 min): 14.6%
- % of Lysine depletion, Rep 1 ([1]; 20 min): 14.9%
- % of Lysine depletion, Avg ([1]; 24 h): 33.3%
- % of Lysine depletion, Rep 2 ([1]; 24 h): 33.1%
- % of Lysine depletion, Rep 3 ([1]; 24 h): 33.9%
- % of Lysine depletion, Rep 1 ([1]; 24 h): 32.8%
- Reactivity Class ([1]; 20 min): Low
- Reactivity Class ([1]; 24 h): Moderate
- % Parent compound Penetrated (mean) ([2]; 1% W/V applied, 8 h): 0.162%
- % converted to metabolite (mean) ([2]; 1% W/V applied, 8 h): 3.17%
- Mass balance in the Franz cells ([2]; 8 h): > 99%
- Jss · 10^4 (steady state flux) ([2]; mean): 4.3 mg cm^−2 h^−1
- tlag (lag time) ([2]; mean): 4.2 h
- recovery at 8 h, 1 % w/v ([2]; pig, 1% W/V applied, 8 h, read-out: % Parent compound Recovery (mean)): 90.3%
- Papp at 8 h, 1 % w/v ([2]; pig, mean, read-out: kp · 10^5 (steady state permeability coefficient) (converted)): 1190 ×10⁻⁶ cm/s
- Dm · 10^4 (diffusion coefficient in skin) ([2]; steady state, mean): 5.00 cm^−2 h^−1
- Ks/d (skin-donor partition coefficient) ([2]; steady state, mean, 1% w/v in water, 8 h): 0.010
